{"source": "patent US4971974A", "about": "“Benzothiophenes as appetite suppressants” (Neurex Corporation, priority 1988, dated 1990)", "key": {"[1]": {"conditions": "in vivo; cited from earlier work"}, "[2]": {"assay": "Food intake in food-deprived rats after ip injection (Example 1)", "assay_type": "in vivo", "conditions": "for Post-Drug Food Intake, 0-1 hr / Post-Drug Food Intake, 1-2 hr / Post-Drug Food Intake, 2-6 hr / Post-Drug Food Intake, 6-8 hr / Post-Drug Food Intake, 8-24 hr / Cumulative Food Intake, 1 hr / Cumulative Food Intake, 2 hr / Cumulative Food Intake, 6 hr / Cumulative Food Intake, 8 hr / Cumulative Food Intake, 24 hr: mean ± SD; for Post-Drug Food Intake, 0-1 hr / Cumulative Food Intake, 1 hr: control 5.3 ± 1.3; for Post-Drug Food Intake, 1-2 hr: control 0.6 ± 0.7; for Post-Drug Food Intake, 2-6 hr: control 2.5 ± 1.6; for Post-Drug Food Intake, 6-8 hr: control 2.0 ± 1.0; for Post-Drug Food Intake, 8-24 hr: control 20.8 ± 1.7; for Cumulative Food Intake, 2 hr: control 5.9 ± 1.2; for Cumulative Food Intake, 6 hr: control 8.4 ± 0.9; for Cumulative Food Intake, 8 hr: control 10.4 ± 1.6; for Cumulative Food Intake, 24 hr: control 31.2 ± 2.1", "description": "Forty-eight 70-to-80-day-old male rats (Bantin & Kingman, Fremont, Calif.) were housed singly in suspended cages, and were acclimated to the laboratory setting for a period of 12 days prior to testing. During this time, they were allowed ad libitum access to food (Ralston-Purina #5001M) and water. The room was kept at 24°-27° C. and maintained on a 12:12-hr light:dark schedule (0700-1900 h).\nAnimals matched by body weight and mean daily food intake were assigned to 4 groups (n=12/group). Food jars were removed at 0900 h. Twenty-four hours later, rats were injected with either sterile 0.9% saline or saline containing 1,2,3,4-tetrahydrobenzo[b]thieno[2,3-c]pyridine HCl (5, 10, or 25 mg/kg, ip). Pre-weighed food jars containing meal (Ralston-Purina #5001M) were presented immediately post-injection. These were weighed at intervals over the next 24 hours, and food consumption was calculated for each interval. Animals were provided with water in quantities sufficient for ad libitum consumption throughout the experiment.\nTo assess the duration of the drug-induced anorexia and rebound feeding behavior, food intake was measured at several time intervals after drug administration."}, "[3]": {"assay": "Alteration of macronutrient preference in rats, 75% or 25% carbohydrate test diets (Example 2)", "assay_type": "in vivo, rats (Sprague-Dawley)", "conditions": "rat; for cumulative amount of 25% Carbohydrate diet consumed, 1 hr / cumulative amount of 25% Carbohydrate diet consumed, 2 hr / cumulative amount of 75% Carbohydrate diet consumed, 1 hr / cumulative amount of 75% Carbohydrate diet consumed, 2 hr: mean±SEM; for cumulative amount of 25% Carbohydrate diet consumed, 1 hr: saline 6.4 ± 0.5; for cumulative amount of 25% Carbohydrate diet consumed, 2 hr: saline 7.5 ± 1.7; for cumulative amount of 75% Carbohydrate diet consumed, 1 hr: saline 6.6 ± 0.5; for cumulative amount of 75% Carbohydrate diet consumed, 1 hr / cumulative amount of 75% Carbohydrate diet consumed, 2 hr: significant p < 0.01; for cumulative amount of 75% Carbohydrate diet consumed, 2 hr: saline 8.4 ± 1.6", "description": "Sixty adult male rats (Sprague-Dawley, 225-300 g) were acclimated to laboratory conditions for a period of 10 days, during which they were allowed unrestricted access to food (Ralston-Purina #5001M) and water. All subjects were housed in individual cages, and the animal facility was maintained on a 12:12 hour light:dark cycle at 24°-27° C.\nAnimals were assigned to 6 groups (10 per group), then allowed to consume, ad libitum, one of two iso-nitrogenous test diets containing either 75% or 25% carbohydrate. After 3 days, food jars were removed. After an additional 24 hours, rats were administered either saline or 1,2,3,4-tetrahydrobenzo[b]thieno[2,3-c]pyridine (1.5 or 3.0 mg/Kg body weight), then given immediate access to the test diets. Data listed in Table 3 indicate the cumulative amount in grams (mean±SEM) of each diet consumed by the experimental and control groups during the subsequent 2-hour period."}, "[4]": {"assay": "Acute toxicity studies in mice", "conditions": "mouse, in vivo, ip, intraperitoneally", "description": "In acute toxicity studies in mice, 1,2,3,4-tetrahydrobenzo[b]thieno[2,3-c]pyridine yields LD50 values in excess of 100 mg/kg when administered intraperitoneally and 100 mg/kg when administered by the oral route."}, "[5]": {"conditions": "U.S. Pat. Nos. 3,636,218; 3,518,278; Miller et al; cited from earlier work"}, "[6]": {"conditions": "rat, 5 mg/Kg ip, significant p < 0.02"}, "[7]": {"conditions": "rat, 10 mg/Kg ip, significant p < 0.02"}, "[8]": {"conditions": "rat, 25 mg/Kg ip, significant p < 0.05"}, "[9]": {"conditions": "rat, 25 mg/Kg ip, significant p < 0.02"}}, "data": [{"molecule": "O=C(NCCN1CCOCC1)c1sc2ccccc2c1Br", "note": "[3-bromo-2-(N-morpholinoethyl)benzo[b]thiophene carboximide]", "values": [{"measurement": "anticonvulsant properties", "setting": "[1]", "value": "anticonvulsant properties"}, {"measurement": "antidepressant activity", "setting": "[1]", "value": "antidepressant activity"}]}, {"molecule": "c1ccc2c3c(sc2c1)CNCC3", "note": "[1,2,3,4-tetrahydrobenzo[b]thieno[2,3-c]pyridine]", "values": [{"measurement": "Post-Drug Food Intake, 0-1 hr", "setting": "[2]; rat, 5 mg/Kg ip, significant p < 0.05", "value": "1.3 ± 0.6", "unit": "gm"}, {"measurement": "Post-Drug Food Intake, 1-2 hr", "setting": "[2]; rat, 5 mg/Kg ip", "value": "1.2 ± 0.6", "unit": "gm"}, {"measurement": "Post-Drug Food Intake, 2-6 hr", "setting": "[2]; rat, 5 mg/Kg ip", "value": "4.9 ± 1.6", "unit": "gm"}, {"measurement": "Post-Drug Food Intake, 6-8 hr", "setting": "[2]; rat, 5 mg/Kg ip", "value": "1.8 ± 1.3", "unit": "gm"}, {"measurement": "Post-Drug Food Intake, 8-24 hr", "setting": "[2]; rat, 5 mg/Kg ip", "value": "18.2 ± 1.9", "unit": "gm"}, {"measurement": "Cumulative Food Intake, 1 hr", "setting": "[2]; [6]", "value": "1.3 ± 0.6", "unit": "gm"}, {"measurement": "Cumulative Food Intake, 2 hr", "setting": "[2]; [6]", "value": "2.5 ± 0.7", "unit": "gm"}, {"measurement": "Cumulative Food Intake, 6 hr", "setting": "[2]; rat, 5 mg/Kg ip", "value": "7.4 ± 1.6", "unit": "gm"}, {"measurement": "Cumulative Food Intake, 8 hr", "setting": "[2]; rat, 5 mg/Kg ip", "value": "9.2 ± 1.6", "unit": "gm"}, {"measurement": "Cumulative Food Intake, 24 hr", "setting": "[2]; rat, 5 mg/Kg ip", "value": "27.4 ± 2.8", "unit": "gm"}, {"measurement": "food consumption in rats", "setting": "[2]; rat, 5 mg/kg intraperitoneally", "value": "significantly reduce food consumption in rats"}, {"measurement": "Post-Drug Food Intake, 0-1 hr", "setting": "[2]; rat, 10 mg/Kg ip, significant p < 0.05", "value": "0.9 ± 0.9", "unit": "gm"}, {"measurement": "Post-Drug Food Intake, 1-2 hr", "setting": "[2]; rat, 10 mg/Kg ip", "value": "1.1 ± 0.8", "unit": "gm"}, {"measurement": "Post-Drug Food Intake, 2-6 hr", "setting": "[2]; rat, 10 mg/Kg ip", "value": "4.3 ± 1.8", "unit": "gm"}, {"measurement": "Post-Drug Food Intake, 6-8 hr", "setting": "[2]; rat, 10 mg/Kg ip", "value": "1.4 ± 0.6", "unit": "gm"}, {"measurement": "Post-Drug Food Intake, 8-24 hr", "setting": "[2]; rat, 10 mg/Kg ip", "value": "19.2 ± 2.8", "unit": "gm"}, {"measurement": "Cumulative Food Intake, 1 hr", "setting": "[2]; [7]", "value": "0.9 ± 0.9", "unit": "gm"}, {"measurement": "Cumulative Food Intake, 2 hr", "setting": "[2]; [7]", "value": "2.0 ± 1.1", "unit": "gm"}, {"measurement": "Cumulative Food Intake, 6 hr", "setting": "[2]; rat, 10 mg/Kg ip", "value": "6.3 ± 2.3", "unit": "gm"}, {"measurement": "Cumulative Food Intake, 8 hr", "setting": "[2]; rat, 10 mg/Kg ip", "value": "7.7 ± 2.5", "unit": "gm"}, {"measurement": "Cumulative Food Intake, 24 hr", "setting": "[2]; [7]", "value": "26.8 ± 2.8", "unit": "gm"}, {"measurement": "Post-Drug Food Intake, 0-1 hr", "setting": "[2]; [8]", "value": "0.1 ± 0.2", "unit": "gm"}, {"measurement": "Post-Drug Food Intake, 1-2 hr", "setting": "[2]; rat, 25 mg/Kg ip", "value": "0.1 ± 0.2", "unit": "gm"}, {"measurement": "Post-Drug Food Intake, 2-6 hr", "setting": "[2]; rat, 25 mg/Kg ip", "value": "2.1 ± 2.3", "unit": "gm"}, {"measurement": "Post-Drug Food Intake, 6-8 hr", "setting": "[2]; rat, 25 mg/Kg ip", "value": "0.9 ± 0.7", "unit": "gm"}, {"measurement": "Post-Drug Food Intake, 8-24 hr", "setting": "[2]; [8]", "value": "17.1 ± 2.1", "unit": "gm"}, {"measurement": "Cumulative Food Intake, 1 hr", "setting": "[2]; [9]", "value": "0.1 ± 0.2", "unit": "gm"}, {"measurement": "Cumulative Food Intake, 2 hr", "setting": "[2]; [9]", "value": "0.2 ± 0.3", "unit": "gm"}, {"measurement": "Cumulative Food Intake, 6 hr", "setting": "[2]; [9]", "value": "2.2 ± 2.4", "unit": "gm"}, {"measurement": "Cumulative Food Intake, 8 hr", "setting": "[2]; [9]", "value": "3.0 ± 2.6", "unit": "gm"}, {"measurement": "Cumulative Food Intake, 24 hr", "setting": "[2]; [9]", "value": "20.1 ± 2.6", "unit": "gm"}, {"measurement": "cumulative food intake at 24 hours vs controls", "setting": "[2]; rat, 25 mg/kg ip, 24 hours", "value": "substantially lower cumulative food intake at 24 hours post-injection than controls"}, {"measurement": "food consumption, dose relation", "setting": "[2]; rat, 5, 10, 25 mg/kg ip", "value": "dose-related decrement in food consumption"}, {"measurement": "rebound feeding in the 1-6 hr interval", "setting": "[2]; rat, 5 and 10 mg/kg ip, not statistically significant", "value": "varying degrees of rebound feeding"}, {"measurement": "food intake at 2 hours post-injection vs control", "setting": "[2]; rat, all experimental groups (5, 10, 25 mg/kg ip), 2 hours", "value": "significantly lower than control values"}, {"measurement": "food intake in the first hour after drug administration", "setting": "[2]; rat, ip, first hour", "value": "highly significant fall in food intake"}, {"measurement": "cumulative amount of 25% Carbohydrate diet consumed, 1 hr", "setting": "[3]; 1.5 mg/Kg", "value": "5.6 ± 0.3", "unit": "grams"}, {"measurement": "cumulative amount of 25% Carbohydrate diet consumed, 2 hr", "setting": "[3]; 1.5 mg/Kg", "value": "7.6 ± 1.0", "unit": "grams"}, {"measurement": "cumulative amount of 75% Carbohydrate diet consumed, 1 hr", "setting": "[3]; 1.5 mg/Kg", "value": "4.4 ± 0.2", "unit": "grams"}, {"measurement": "cumulative amount of 75% Carbohydrate diet consumed, 2 hr", "setting": "[3]; 1.5 mg/Kg", "value": "5.8 ± 0.8", "unit": "grams"}, {"measurement": "cumulative amount of 25% Carbohydrate diet consumed, 1 hr", "setting": "[3]; 3.0 mg/Kg", "value": "5.4 ± 0.3", "unit": "grams"}, {"measurement": "cumulative amount of 25% Carbohydrate diet consumed, 2 hr", "setting": "[3]; 3.0 mg/Kg", "value": "7.0 ± 1.1", "unit": "grams"}, {"measurement": "cumulative amount of 75% Carbohydrate diet consumed, 1 hr", "setting": "[3]; 3.0 mg/Kg", "value": "4.5 ± 0.2", "unit": "grams"}, {"measurement": "cumulative amount of 75% Carbohydrate diet consumed, 2 hr", "setting": "[3]; 3.0 mg/Kg", "value": "6.0 ± 1.3", "unit": "grams"}, {"measurement": "consumption of low carbohydrate diet vs controls", "setting": "[3]; 1.5 or 3.0 mg/Kg, 25% carbohydrate", "value": "consumed equivalent quantities of the low carbohydrate diet"}, {"measurement": "consumption of high carbohydrate diet vs controls", "setting": "[3]; 1.5 or 3.0 mg/Kg, 75% carbohydrate", "value": "consumed significantly less of the high carbohydrate diet than did controls"}, {"measurement": "LD50", "setting": "[4]", "value": "> 100", "unit": "mg/kg"}, {"measurement": "central nervous system depression", "setting": "[5]", "value": "CNS depressants and tranquilizing agents"}]}]}
